# Values of other authors in publication PMC10225205 (Cancer Medicine, 2023).
# Where two headings read alike, the source gives them in different places.
# Settings: cited from earlier work
smiles,measurement,setting,value
COc1cc(OC)cc(N(CCNC(C)C)c2ccc3ncc(-c4cnn(C)c4)nc3c2)c1 [erdafitinib],Most common TEAE,in vivo,hyperphosphatemia
same,Most common TEAEs,"phase 1 multicenter study, advanced solid tumors","hyperphosphatemia, dry mouth, stomatitis, and asthenia"
C=CC(=O)N1CC[C@H](n2nc(C#Cc3cc(OC)cc(OC)c3)c3c(N)ncnc32)C1 [futibatinib],Most common TEAE,"phase 1, Japanese patients with advanced solid tumors",hyperphosphatemia
same,Most frequently reported TEAEs,"phase 1 study, advanced solid tumors","hyperphosphatemia, diarrhea, constipation, and nausea"
CCN1CCN(c2ccc(Nc3cc(N(C)C(=O)Nc4c(Cl)c(OC)cc(OC)c4Cl)ncn3)cc2)CC1 [infigratinib],Most commonly reported (>30%) TEAEs,global phase 1 study,"hyperphosphatemia, constipation, appetite decreased, stomatitis, diarrhea, nausea, and fatigue"
